Literature values as cited in patent US20220409351A1, “ORAL APPLIANCE FOR DELIVERY OF AN ANTIMICROBIAL COMPOSITION” (Emanate Biomedical, Inc., priority 2019, published 2022).

Experiments:
oral pathogenic bacteria [1] = conditions: at 10 minutes
oral pathogenic bacteria [2] = conditions: against oral pathogenic bacteria

## [H]/N=C(\N/C(=N/[H])NCCCCCCNC(=N)NC(=N)Nc1ccc(Cl)cc1)Nc1ccc(Cl)cc1 [Chlorhexidine, chlorhexidine]
Oral pathogenic bacteria [1]
  MBC: 0.5 % w/v
Oral pathogenic bacteria [2]
  MIC: 0.0125 % w/v
